Data taken from patent publication US20240123022A1, “A STABLE ANTI-ANGIOGENIC AND ANTI-INFLAMMATORY PHARMACEUTICAL FORMULATION AND PHARMACEUTICAL COMBINATION FOR TREATMENT AND PREVENTION OF PSORIASIS” (priority 2021, published 2024).
Like-named read-outs stand apart in the source and are kept apart here.

Key:
[1] = tested on: HUVEC cells; assay type: cell-based, human; details: 100-1000 μg/ml
Experimental: The study was performed to determine anti-angiogenic effect of IS217 in HUVEC cell line by assessing anti-proliferative effects of test item. Here XTT assay was used to determine the cell viability in test cells. HUVEC cells were treated with the test item IS217 (100-1000 μg/ml) and bevacizumab (1 mg/ml) concentrations was used as positive controls.

[2] = human, microsomes
Experimental: Metabolic stability assay was performed to determine in vitro half-life and intrinsic clearance of test item. […] Following centrifugation, the supernatant was analyzed on HPLC-UV.

[3] = Plasma stability in human plasma; assay type: in vitro ADME
Experimental: Following centrifugation, the supernatant was analyzed on HPLC-UV.

[4] = tested on: HaCaT cell lines; assay: Cell cycle assay (Sub-G0/G1, pro-apoptotic effect); assay type: cell-based, human; details: 48 h, vs untreated
Excerpt: HaCaT cell lines were used as test system since it is widely used for studying anti-psoriatic effects. Curcumin dissolved in DMSO was taken as positive control for validation purpose. Apoptotic effect on HaCaT cell lines was detected by flow cytometry analysis.

[5] = tested on: human endothelial cell line (EA.hy926); details: EA.hy926, 1-5000 μg/ml, 72 h
Experimental: Here MTT assay and BioTek Synergy HT multimode reader were used to determine the cell viability in test cells. […] Once within about 72 hours of incubation, re-treatment was done for test items at every 24 hours in 3 additions. 150 μl of DMSO was added to aspirated supernatant and observed at 540 nm using BioTek Synergy HT plate reader.

[6] = tested on: HUVEC
[7] = tested on: human plasma proteins; assay: in vitro
Experimental: Test item at concentration of about 100 μg/ml was incubated with human plasma at 37° C. in water bath for about 1 hour. About 500 μL of test solution was transferred to ultrafiltration devices and centrifuged for about 15 minutes at about 13000 rpm and at 37° C. and analyzed using HPLC method.

[8] = tested on: Human endothelial cells (EA.hy.926); assay: Tube formation assay in EA.hy.926 cells; assay type: cell-based
Experimental: This assay was performed to determine ability of various compounds to promote or inhibit tube formation. Compounds that are able to inhibit tube formation could be useful in various diseases, such as cancer, where tumors stimulate new blood vessel formation to receive oxygen and nutrients in order to grow beyond a relatively small size.
Human endothelial cells (EA.hy.926) grown in DMEM and about 10% FBS were used as test system to determine angiogenic effect of IS217 by assessing inhibitory effects of test item on endothelial cells tube formation.
Prior to the tube formation assay, test item of concentration ranging 1 μg/ml, 10 μg/ml, 100 μg/ml, 500 μg/ml and 1000 μg/ml were used to treat endothelial cells for its cytotoxicity effect to assess suitable concentration for tube formation assay. The cells corresponding to positive control group were treated with paclitaxel. Anthralin was also used as positive control for in house validation.
After about 24 hours of incubation in CO2 incubator, 20 μl of 5 mg/ml of MTT was added to identify percentage cytotoxicty by biotek synergy HT plate reader. After that cells were processed for tube formation assay with selected concentrations of TI. The degree of angiogenesis progression was assessed based on visual pattern recognition of photomicrographs of EA.hy.926 cells.

[9] = tested on: HUVEC cells; assay: Tube formation assay in HUVEC cells (VEGF induced); assay type: cell-based, human; parameters: Tube formation assay results, Avg: scale not given here
Experimental: HUVEC cells were used as test system to determine angiogenic effect of IS217 by assessing the inhibitory effects of test item on endothelial cells tube formation. Prior to the tube formation assay, test item of concentration ranging 0.01 μg/ml to 1000 μg/ml were used to treat endothelial cells for its cytotoxicity effect to assess suitable concentration for tube formation assay. […] The cells corresponding to positive control group were treated with bevacizumab of concentration 1000 μg/ml. The degree of angiogenesis progression was assessed based on visual pattern recognition of photomicrographs of HUVEC cells.

[10] = tested on: HaCaT cells; assay: TUNEL assay; assay type: cell-based, human; details: for % increase in TUNEL-Positive cell population w.r.t. control (untreated cells): 48 h
Experimental: Terminal deoxynucleotidyl transferase (TdT) dUTP Nick-End Labeling (TUNEL) assay has been designed to detect apoptotic cells that undergo extensive DNA degradation during the late stages of apoptosis. […] Cells were treated with test item (IS217 of 100 μg/ml-5000 μg/ml) and positive controls like curcumin (10 μM and 20 μM), anthralin (1 μM) and betullininc acid (10 μg/ml, 20 μg/ml, 50 μg/ml). After about 48 hours of treatment, cells were analysed for the apoptotic effect via TUNEL assay. Absorbance was measured using ELISA reader (Table 1).

H-FAKKFAKKFK-OH [IS217, H-Phe-Ala-Lys-Lys-Phe-Ala-Lys-Lys-Phe-Lys-OH]
percentage inhibition of FBS induced proliferation of HUVEC cells [1]: effective upto 1000 μg/ml only
metabolic stability [2]: moderately metabolically stable
remaining at 0.25 h, 100 μg/ml ([3]; human plasma, 15 minutes, read-out: IS217 remaining): 90.7%
remaining at 0.5 h, 100 μg/ml ([3]; human plasma, 30 minutes, read-out: IS217 remaining): 105%
remaining at 0.75 h, 100 μg/ml ([3]; human plasma, 45 minutes, read-out: IS217 remaining): 85.2%
remaining at 1 h, 100 μg/ml ([3]; human plasma, 60 minutes, read-out: IS217 remaining): 91.1%
plasma stability ([3]; human, plasma): stable in human plasma
half-life at 100 μg/ml ([3]; human, plasma, from 60 minutes incubation, read-out: calculated half-life in human plasma): 6.92 h
increase in pro-apoptotic cells (Sub-G0/G1 population) ([4]; 100 μg/mL): 1.2 fold
increase in pro-apoptotic cells (Sub-G0/G1 population) ([4]; 500 μg/mL): 5.0 fold
increase in pro-apoptotic cells (Sub-G0/G1 population) ([4]; 1000 μg/mL): 6.8 fold
increase in pro-apoptotic cells (Sub-G0/G1 population) ([4]; 5000 μg/mL): 1.1 fold
percentage inhibition of FBS induced proliferation of endothelial cells [5]: effective upto 2000 μg/ml only
inhibition of healthy unstimulated cells (CC50 experiment) [6]: no inhibition
inhibition of VEGF stimulated HUVEC cells ([6]; VEGF stimulated): dose dependent inhibition
fraction unbound at 1 hour, 100 μg/ml [7]: 0.466
fraction unbound at 1 hour, 100 μg/ml ([7]; free fraction): 0.466 ± 0.03
inhibition of endothelial morphogenesis on matrigel ([8]; Ea.hy.926, 500 μg/ml): Complete inhibition
endothelial tube formation ([8]; Ea.hy.926, all test concentrations 1 μg/ml to 1000 μg/ml): block endothelial tube formation
Tube formation assay results, Avg ([9]; 100 μg + VEGF): 2.55
Tube formation assay results, Avg ([9]; 100 μg, without VEGF): 0.33
Tube formation assay results, Avg ([9]; 250 μg + VEGF): 1.33
Tube formation assay results, Avg ([9]; 250 μg, without VEGF): 0.33
Tube formation assay results, Avg ([9]; 500 μg + VEGF): 0.88
Tube formation assay results, Avg ([9]; 500 μg, without VEGF): 0.33
Tube formation assay results, Avg ([9]; 1000 μg + VEGF): 0.55
Tube formation assay results, Avg ([9]; 1000 μg, without VEGF): 0.33
inhibition of endothelial morphogenesis on matrigel ([9]; HUVEC, 1000 μg/ml): Complete inhibition
endothelial tube formation ([9]; HUVEC, all test concentrations 100 μg/ml to 1000 μg/ml): block endothelial tube formation
% increase in TUNEL-Positive cell population w.r.t. control (untreated cells) ([10]; 500 μg/ml): −25.0%
% increase in TUNEL-Positive cell population w.r.t. control (untreated cells) ([10]; 1000 μg/ml): −20.4%
% increase in TUNEL-Positive cell population w.r.t. control (untreated cells) ([10]; 2000 μg/ml): −25.4%
% increase in TUNEL-Positive cell population w.r.t. control (untreated cells) ([10]; 5000 μg/ml): −40.7%
increase in apoptotic cells (TUNEL positive population) ([10]; tested concentration range 100-5000 μg/ml, vs untreated): No increase
